{
  "source": "patent US20070179162A1",
  "about": "“Triazolopyrimdines” (priority 2003, published 2007)",
  "key": {"[1]": {"test": "logP determination through HPLC (gradient method, acetonitrile/0.1% aqueous phosphoric acid)", "format": "physicochemical"}, "Alternaria solani": {"system": "Alternaria solani", "test": "Alternaria test (tomato)/protective", "format": "in vivo", "details": "tomato plants, protective, applied quantity 750 g/ha, analysis 7 days after inoculation; 100% = no infection", "protocol": "Alternaria Test (Tomato)/Protective Solvent: 49 parts by weight N,N-dimethyl formamide Emulsifier: 1 part by weight alkyl aryl polyglycolether To produce an effective active ingredient preparation, 1 part by weight active ingredient is mixed with the specified quantities of solvent and emulsifier and the concentrate is diluted using water to the desired concentration. To test for protective activity, young tomato plants are sprayed with the active ingredient preparation in the specified applied quantity. 1 day after the treatment, the plants are inoculated with a spore suspension of Alternaria solani and then stand 24 hours at 100% relative humidity and 20° C. The plants are then stand at 96% relative humidity and a temperature of 20° C. The analysis is performed 7 days after the inoculation. In this case, 0% means an activity which corresponds to that of the control, while an activity of 100% means that no infection is observed."}},
  "data": [
    {"compound": "CC1CCC(c2c(-c3ncncc3Cl)c(Cl)nc3ncnn23)CC1", "note": "(centres unmarked) [Example 1, 5-chloro-6-(5-chloro-4-pyrimidinyl)-7-(4-methylcyclohexyl)[1,2,4]triazolo[1,5-a]pyrimidine]", "values": [
      {"measurement": "chromatographic logP", "setting": "[1]", "value": 3.27},
      {"measurement": "activity", "setting": "Alternaria solani", "value": 100, "unit": "%"}
    ]}
  ]
}
